{
  "source": "patent US20080091140A1",
  "about": "“Cardiac Reperfusion Methods and Devices” (priority 2006, published 2008)",
  "format_in_all_cases": "in vivo, Female juvenile domestic swine",
  "key": {"apoptosis": {"system": "apoptosis", "assay": "TUNEL staining for apoptosis in heart tissue sections", "settings": "heart tissue after 2 h reperfusion; non-discriminatory vs saline"}, "[1]": {"system": "acute regional myocardial ischemia and reperfusion (LAD occlusion)", "assay": "Survival of the reperfusion period", "settings": "of 5 chloramphenicol TGT treated animals, to sacrifice at 2 h", "protocol": "(§1) Methods: Female juvenile pigs (n=14) were used. All animals received 250 mg of aspirin and 100 U/Kg of heparin IV. Tying the mid Left Anterior Descending Artery (“LAD”) after distal TGT (Trans Guide wire Therapy) wire placement induced acute myocardial ischemia. The TGT system consisted of a 0.014 inch nitinol torquable guide wire and removable stopcock. The distal 30 mm tip was flexible and radio-opaque. Immediately proximal to the tip were delivery holes to facilitate TGT delivery. TGT was delivered after 30 minutes of ischemia. The distal coronary vascular bed was visualized by injection with radiographic contrast (n=2) and Evans blue (n=2). […] Suture removal allowed 2 hours of reperfusion prior to sacrifice. Hemodynamics expressed as the heart rate blood pressure product (RPP) was assessed continuously. Echocardiographic LV ejection fraction (LVEF) was measured at baseline, end of ischemia (pre-TGT) and pre-sacrifice. Device success was defined as successful TGT delivery.\nInterventional Coronary and Surgical Procedures: A 6F Hockey stick guide catheter cannulated the left main coronary artery. The TGT wire, flushed with heparin, was positioned in the distal left anterior descending (LAD) artery. After a midline sternotomy acute regional myocardial ischemia was induced by occluding the mid portion of the LAD with a surgical suture. […]"}, "[2]": {"system": "acute regional myocardial ischemia and reperfusion (LAD occlusion)", "assay": "Echocardiographic LV ejection fraction"}, "Caspase 3": {"system": "Caspase 3", "assay": "Western blotting of infarct border area: Caspase 3", "settings": "infarct border area after 2 h reperfusion, p=0.007 vs saline", "excerpt": "Interventional Coronary and Surgical Procedures: A 6F Hockey stick guide catheter cannulated the left main coronary artery. The TGT wire, flushed with heparin, was positioned in the distal left anterior descending (LAD) artery. After a midline sternotomy acute regional myocardial ischemia was induced by occluding the mid portion of the LAD with a surgical suture. Fluoroscopy ensured the suture was above the infusion ports of the TGT wire with distal TIMI 0 flow. Lidocaine was given as a bolus and infusion at the onset of ischemia and for the remainder of the experiment. TGT injection was performed at the end of a 30 minute ischemic period after which the suture was removed to allow reperfusion. Restoration of TIMI 3 flow was documented by cine-angiography. Animals were sacrificed after 2 hours of reperfusion and the hearts were harvested for immunohistochemistry. Western Blotting: After cardiac harvest the infarct border area was immediately frozen in liquid nitrogen. […] Supernatant protein concentration was measured using a BCA assay kit (Pierce Laboratories). […] After 3 TBST washings the immunocomplexes were developed using an enhanced HPO/luminol chemiluminescence reaction, and recorded photographically (Hyper film ECL; Amersham) by 10 s to 3 min exposure. […] Quantification was performed using scanning densitometry with image J software."}, "[3]": {"system": "acute regional myocardial ischemia and reperfusion (LAD occlusion)", "assay": "Supportive drug therapy required during ischemia-reperfusion (arbitrary units)", "settings": "chloramphenicol 10 mg TGT plus 40 mg/Kg IV", "protocol": "as §1\n(§2) Interventional Coronary and Surgical Procedures: A 6F Hockey stick guide catheter cannulated the left main coronary artery. The TGT wire, flushed with heparin, was positioned in the distal left anterior descending (LAD) artery. After a midline sternotomy acute regional myocardial ischemia was induced by occluding the mid portion of the LAD with a surgical suture. Fluoroscopy ensured the suture was above the infusion ports of the TGT wire with distal TIMI 0 flow. Lidocaine was given as a bolus and infusion at the onset of ischemia and for the remainder of the experiment. TGT injection was performed at the end of a 30 minute ischemic period after which the suture was removed to allow reperfusion. Restoration of TIMI 3 flow was documented by cine-angiography. Animals were sacrificed after 2 hours of reperfusion and the hearts were harvested for immunohistochemistry.\n(§3) Hemodynamic Assessment: There was continuous measurement of hemodynamic parameters. Cardiac output was measured immediately before and after ischemia and pre-sacrifice. Hemodynamic stability and contractility were supported medically by IV dopamine, and epinephrine to maintain MAP above 50 mmg. Boluses of atropine (1 mg) and lidocaine (100 mg) were given as appropriate for treatment of arrhythmias. IV calcium and bicarbonate were given in appropriate doses during cardiopulmonary resuscitation. Each administration of these drugs was recorded as 1 arbitrary unit.\nThe latter was prepared as 10 mg in 0.5 cc of saline for TGT in addition to 40 mg/Kg IV. Injections were performed just prior to reperfusion."}, "[4]": {"system": "acute regional myocardial ischemia and reperfusion (LAD occlusion)", "assay": "Hemodynamic assessment (rate pressure product) in swine LAD ischemia-reperfusion with Trans Guide wire Therapy", "settings": "for rate pressure product (RPP), Pre-sacrifice: after 2 h reperfusion, chloramphenicol 10 mg TGT plus 40 mg/Kg IV just prior to reperfusion, p=0.02 vs saline", "protocol": "as §1\nAnimal Preparation: Female juvenile domestic swine, weight 30-50 kg, were studied. […] Anaesthesia was induced with an intramuscular injection of ketamine (20 mg/kg) followed by inhaled isoflurane (0.5-2.0%). After general anaesthesia the femoral artery was cannulated. A pulmonary artery cannula was positioned via the right internal jugular vein. All animals received 250 mg of IV aspirin and 100 U/Kg units of heparin intravenously to achieve an ACT above 250 s.\nas §2\nas §3, with “IV calcium and bicarbonate were given in appropriate doses during cardiopulmonary resuscitation.” left out, “unit. […]” for “unit.”"}, "[5]": {"settings": "each administration recorded as 1 arbitrary unit, group sum"}},
  "note": "Marks after values point to notes of the source that are not given here.",
  "data": [
    {"smiles": "O=C(N[C@H](CO)[C@H](O)c1ccc([N+](=O)[O-])cc1)C(Cl)Cl", "note": "[chloramphenicol]", "values": [
      {"measurement": "TUNEL staining", "setting": "apoptosis", "result": "weakly positive"},
      {"measurement": "animals that survived the period of reperfusion", "setting": "[1]", "result": 5},
      {"measurement": "LV ejection fraction, end of ischemia", "setting": "[2]; after 30 minute ischemia, pre-TGT, chloramphenicol TGT group", "result": 27.3, "unit": "%+/−3.8"},
      {"measurement": "LV ejection fraction, pre-sacrifice (after reperfusion)", "setting": "[2]; after 2 h reperfusion, chloramphenicol 10 mg TGT plus 40 mg/Kg IV, p<0.001 vs end of ischemia", "result": 43.3, "unit": "%+/−11.4"},
      {"measurement": "caspase-3 band intensity by densitometry", "setting": "Caspase 3", "result": "346±110"},
      {"measurement": "supportive therapy: Atropine", "setting": "[3]; [5]", "result": 2.5, "unit": "arbitrary units"},
      {"measurement": "supportive therapy: Bicarbonate", "setting": "[3]; [5]", "result": 1, "unit": "arbitrary units"},
      {"measurement": "supportive therapy: Dopamine", "setting": "[3]; [5]", "result": 1, "unit": "arbitrary units"},
      {"measurement": "supportive therapy: Epinephrine", "setting": "[3]; [5]", "result": 1, "unit": "arbitrary units"},
      {"measurement": "supportive therapy: Lidocaine", "setting": "[3]; [5]", "result": 4.5, "unit": "arbitrary units"},
      {"measurement": "supportive therapy: calcium", "setting": "[3]; [5]", "result": 0, "unit": "arbitrary units"},
      {"measurement": "supportive therapy / intravenous inotrope support, mean", "setting": "[3]; mean (+/-), p=0.028 vs saline", "result": "1.67 (+/−1.6) arbitrary units"},
      {"measurement": "supportive therapy: Total", "setting": "[3]; sum over all support drugs", "result": 10, "unit": "arbitrary units"},
      {"measurement": "rate pressure product (RPP), Pre-sacrifice", "setting": "[4]", "result": "3720.0 (+/−510.2)"},
      {"measurement": "rate pressure product (RPP), Pre-sacrifice", "setting": "[4]; listed as Chloramphenicol", "result": "3720.0 +/− 510.2*"},
      {"measurement": "rate pressure product (RPP), Baseline", "setting": "[4]; baseline, before ischemia and before TGT, chloramphenicol TGT group (n=5)", "result": "3980.8 +/− 594.5"},
      {"measurement": "rate pressure product (RPP), End of ischemia", "setting": "[4]; end of 30 min ischemia, pre-TGT, chloramphenicol TGT group (n=5)", "result": "2969.5 +/− 687.2"}
    ]}
  ]
}
